Experimental findings from the supplement of paper PMC4862054 are described below.

Common to all, as to conditions: 72 h
Test [1] deals with BT-474. An outline of the steps: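 To measure viability, fluorescence at 560/590 nm was read after 2.5 µl CellTiter-Blue had been added for 2 h at 37 °C. Cells from breast cancer lines had been seeded in 20 µl suspension onto 384-well plates pre-loaded with compound dissolved in 5 µl medium and kept for 72 h. EC50 comes from a fitted percent-inhibition dose-response curve censored at the highest concentration, after per-plate normalisation to vehicle and a positive kill control, Z'-factor checks, and removal of rows with zero drug sensitivity score.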

For the next test, the system named is MDA-MB-436. The protocol:
(§1)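 Drug sensitivity and resistance testing (DSRT) of breast cancer cell lines in 384-well plates, 5 concentrations in 10-fold dilutions over a compound-specific 10,000-fold range. After 72 h, cytotoxicity was read by CellTox Green fluorescence and viability by CellTiter-Glo luminescence (multiplexed), normalised to DMSO and benzethonium chloride controls. EC50 is the inflection point of the fitted dose-response curve (bottom asymptote free, so it can be relative for partial curves) and is censored at the highest tested concentration. Rows with DSS 0 (no meaningful response) were excluded.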

Another test concerns BT-549. The procedure: as §1
The next test deals with CAL-148. The protocol: as §1
In test [2] the test system is BT-474. The protocol: as §1
The source holds these as a separate data set.

The next test has as its system MDA-MB-468. The protocol:
as §1

The subject of the next test is MFM-223. The procedure:
as §1

A further test concerns CAL-51. The protocol:
as §1

In another test the test system is MCF-10A. The procedure:
as §1

A further test relates to Hs578T. The procedure:
as §1

The subject of the next test is CAL-85-1. The procedure:
as §1

The test system of another test is MDA-MB-231. The procedure:
as §1

A further test deals with HDQ-P1. The procedure: as §1
For another test, the system named is DU-4475. The procedure:
as §1

The subject of another test is CAL-120. The procedure: as §1
The next test relates to HCC1937. The procedure: as §1
Another test has as its system HCC1143. The protocol: as §1

Take `CC(=O)O[C@H]1C(=O)[C@@]2(C)[C@H]([C@H](OC(=O)c3ccccc3)[C@]3(O)C[C@H](OC(=O)[C@H](O)[C@@H](NC(=O)c4ccccc4)c4ccccc4)C(C)=C1C3(C)C)[C@]1(OC(C)=O)CO[C@@H]1C[C@@H]2O` [Paclitaxel]: in the test on BT-474 [1], the “EC50, CellTiter-Blue viability” value is 8.24 nM. Also, the “EC50, CellTox Green” value with MDA-MB-436 stood at 66.5 nM; in the test on BT-549, 6.52 nM; in the test with CAL-148, 1.16 nM; with BT-474 [2], 11.5 nM; with MDA-MB-468 it was 4.52 nM; in the test with MFM-223, 3.4 nM. In addition, the “EC50, CellTox Green” value in the test on CAL-51 amounted to 2.93 nM; with MCF-10A, 16.8 nM; in the test on Hs578T, 4.11 nM; in the test on CAL-85-1, 2.42 nM; with MDA-MB-231, 8.57 nM.
Regarding `CCOc1cc2ncc(C#N)c(Nc3ccc(OCc4ccccn4)c(Cl)c3)c2cc1NC(=O)/C=C/CN(C)C` [Neratinib], the “EC50, CellTox Green” value with CAL-148 was 791 nM; in the test with MDA-MB-468 it was 149 nM; in the test on CAL-85-1, 211 nM.
For `FC(F)c1nc2ccccc2n1-c1nc(N2CCOCC2)nc(N2CCOCC2)n1` [ZSTK474], the “EC50, CellTox Green” value in the test with BT-474 [2] was above 10000 nM; in the test with MFM-223 it was 1780 nM.
`COc1c(C)cnc(Cn2cnc3c(Cl)nc(N)nc32)c1C` [BIIB021]: the “EC50, CellTiter-Blue viability” value in the test with BT-474 [1] is 93.7 nM. For the same compound, the “EC50, CellTox Green” value in the test with CAL-148 worked out at 84.5 nM; in the test with BT-474 [2] it was 1790 nM; in the test with CAL-51, 758 nM; with HDQ-P1 it was 1960 nM; in the test on MCF-10A, 189 nM; with Hs578T it was 321 nM. In addition, the “EC50, CellTox Green” value was 293 nM with DU-4475, 3950 nM with CAL-85-1 and 928 nM with MDA-MB-231.
Consider `COc1ccc(C2=N[C@@H](c3ccc(Cl)cc3)[C@@H](c3ccc(Cl)cc3)N2C(=O)N2CCNC(=O)C2)c(OC(C)C)c1` [Nutlin-3], for which the “EC50, CellTox Green” value in the test on CAL-148 amounted to 9050 nM; with CAL-51, 252 nM.
As for `Cc1cc(C(C)Nc2ccccc2)c2nc(N3CCOCC3)cc(=O)n2c1` (stereo unspecified) [TGX-221], the “EC50, CellTox Green” value was 1 nM with HDQ-P1 and above 10000 nM with MDA-MB-231.
For the compound `Cn1c(=O)c(F)c(Nc2ccc(I)cc2F)c2c(=O)n(C[C@@H](O)CO)cnc21` [TAK-733], the “EC50, CellTox Green” value in the test on DU-4475 is 29.1 nM; in the test on CAL-85-1, 181 nM; in the test with CAL-120, above 1000 nM; in the test with MDA-MB-231, 54.6 nM.
For `COC(=O)C[C@](O)(CCCC(C)(C)O)C(=O)O[C@@H]1C(OC)=C[C@]23CCCN2CCc2cc4c(cc2[C@H]13)OCO4` [Omacetaxine], in the test with BT-474 [1], the “EC50, CellTiter-Blue viability” value stood at 92.8 nM. For the same compound, the “EC50, CellTox Green” value in the test with MDA-MB-436 was determined as 7440 nM; in the test on BT-549 it was 260 nM; in the test on CAL-148, 2670 nM; with BT-474 [2], 5890 nM; with MDA-MB-468, 388 nM; with MFM-223, 63.7 nM. Further, the “EC50, CellTox Green” value in the test on HDQ-P1 is 689 nM; in the test on MCF-10A, 770 nM; in the test on Hs578T, 40.8 nM; with CAL-85-1, 41.7 nM; in the test with MDA-MB-231, 620 nM.
Regarding `CS(=O)(=O)CCNCc1ccc(-c2ccc3ncnc(Nc4ccc(OCc5cccc(F)c5)c(Cl)c4)c3c2)o1` [Lapatinib], the “EC50, CellTiter-Blue viability” value in the test on BT-474 [1] worked out at 137 nM. Also, the “EC50, CellTox Green” value in the test with MCF-10A was determined as 678 nM.
On to `Nc1nccc(-c2c(-c3ccc(F)cc3)ncn2C2CCCCC2)n1`, for which, in the test on MCF-10A, the “EC50, CellTox Green” value worked out at 4810 nM.
As for `CCS(=O)(=O)c1cccc(-c2cc(C(=O)NC3CCN(C)CC3)c(C)c3[nH]c4ncc(C)cc4c23)c1` [TAK-901], the “EC50, CellTox Green” value in the test with BT-549 came out at 871 nM; with MDA-MB-231 it was 184 nM.
Take `COc1cccc2c1C(=O)c1c(O)c3c(c(O)c1C2=O)C[C@@](O)(C(C)=O)C[C@@H]3O[C@H]1C[C@H](N)[C@H](O)[C@H](C)O1` [Daunorubicin]: the “EC50, CellTiter-Blue viability” value with BT-474 [1] is 160 nM. Further, the figures for the “EC50, CellTox Green” value in the test on MDA-MB-436, with MDA-MB-468 and in the test on CAL-51 were 953 nM, 100 nM and 183 nM, respectively.
As to `O=c1[nH]c(=O)n([C@H]2C[C@H](O)[C@@H](CO)O2)cc1F` [Floxuridine], the “EC50, CellTox Green” value is 734 nM in the test on CAL-51, 3070 nM in the test with HDQ-P1 and 4650 nM in the test with CAL-85-1.
In the case of `COc1ncc(-c2ccc3nccc(-c4ccnnc4)c3c2)cc1NS(=O)(=O)c1ccc(F)cc1F`, in the test on BT-474 [1], the “EC50, CellTiter-Blue viability” value was 13.5 nM. The “EC50, CellTox Green” value came out at 299 nM in the test on HCC1937; 74.7 nM in the test on CAL-148; 134 nM with BT-474 [2]; 160 nM in the test on MDA-MB-468; 22.4 nM in the test on MFM-223; 91.7 nM with CAL-51. The “EC50, CellTox Green” value was 349 nM in the test on MCF-10A, 511 nM in the test on Hs578T and 157 nM in the test on MDA-MB-231.
Take `COC1=CC(c2cc3ccccc3[nH]2)=N/C1=C\c1[nH]c(C)cc1C` [Obatoclax]: the “EC50, CellTiter-Blue viability” value in the test with BT-474 [1] amounted to 124 nM. The results for the “EC50, CellTox Green” value in the test with CAL-51 and in the test on MDA-MB-231 were 2640 nM and 760 nM, respectively.
Turning to `O=c1[nH]cc(F)c(=O)[nH]1` [Fluorouracil], in the test on MDA-MB-436, the “EC50, CellTox Green” value was 7050 nM.
As to `C[C@@]1(C(=O)Nc2ccc(F)nc2)CCCN1c1nc(Nc2cc(C3CC3)n[nH]2)c2cccn2n1`, the “EC50, CellTox Green” value was above 10000 nM in the test on CAL-148; 3.79 nM with MDA-MB-468; 587 nM in the test with MFM-223; 824 nM in the test on CAL-51; 5000 nM in the test on HDQ-P1; 3230 nM in the test with MCF-10A. The “EC50, CellTox Green” value came out at 4500 nM in the test with CAL-120, 1980 nM in the test on MDA-MB-231 and 1350 nM in the test with HCC1143.
Regarding `Cn1cnc2c(F)c(Nc3ccc(Br)cc3F)c(C(=O)NOCCO)cc21` [MEK-162], the entries for the “EC50, CellTox Green” value with HDQ-P1 and with DU-4475 were 123 nM and 508 nM, respectively.
With `C[C@@H]1C=C2C(=O)O[C@@H]3CC[C@H](C1)[C@]23O` [Galiellalactone], the “EC50, CellTiter-Blue viability” value in the test with BT-474 [1] worked out at 28900 nM. For the same compound, in the test on CAL-85-1, the “EC50, CellTox Green” value came out at 47400 nM.
